Results reported in patent publication US20260108521A1, “GSPT1 DEGRADERS, COMPOSITIONS COMPRISING THE DEGRADER, AND METHODS OF USING THE SAME” (BIOFRONT LTD, priority 2022, published 2026).

Key:
HL-60 cells = assay: Cell viability assay (CellTiter-Glo); assay type: cell-based; conditions: Homo sapiens, 72 h incubation, 6-point serial dilution
Experimental: HL-60 cells were seeded at a density of 7000 cells per well in 96-well culture plates (Corning 3903) with IMDM and treated with test compounds following a 6-point serial dilution. RPMI 1640 (0.1% DMSO) was used as control for each well. After 72 h incubation, cell viability was determined using the CellTiter-Glo assay kit (Promega, G9242) according to the manufacturer's instructions. The dose-response curves were determined and IC50 values were calculated using the GraphPad Prism software following a nonlinear regression method.

GSPT1 protein = molecular target: T1, GSPT1 protein (Homo sapiens, UniProt P15170+Q96SW2); assay: GSPT1 degradation assay (western blot) in HL-60 cells; assay type: cell-based; conditions: GSPT1 protein level, 2h incubation, western blot normalized to beta-Actin; for inhibition at 0.1 µM: 0.1 μM compound; for inhibition at 1 µM: 1 μM compound
T1 construct: endogenous in cells; host or cells: HL-60 cells
T1 sequence (P15170 whole entry): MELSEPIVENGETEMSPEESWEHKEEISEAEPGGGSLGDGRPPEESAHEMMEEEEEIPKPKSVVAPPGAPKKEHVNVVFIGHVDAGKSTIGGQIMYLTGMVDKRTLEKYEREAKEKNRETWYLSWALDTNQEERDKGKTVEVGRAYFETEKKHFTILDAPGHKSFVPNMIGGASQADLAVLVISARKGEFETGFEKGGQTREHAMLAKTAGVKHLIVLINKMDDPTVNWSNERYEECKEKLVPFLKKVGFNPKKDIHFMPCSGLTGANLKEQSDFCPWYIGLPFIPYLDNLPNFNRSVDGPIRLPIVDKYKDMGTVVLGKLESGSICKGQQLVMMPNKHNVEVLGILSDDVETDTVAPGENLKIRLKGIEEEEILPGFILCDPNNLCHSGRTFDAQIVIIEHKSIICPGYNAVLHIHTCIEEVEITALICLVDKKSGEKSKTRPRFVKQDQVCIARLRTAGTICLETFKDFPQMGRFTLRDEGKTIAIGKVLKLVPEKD
T1 sequence (Q96SW2 whole entry): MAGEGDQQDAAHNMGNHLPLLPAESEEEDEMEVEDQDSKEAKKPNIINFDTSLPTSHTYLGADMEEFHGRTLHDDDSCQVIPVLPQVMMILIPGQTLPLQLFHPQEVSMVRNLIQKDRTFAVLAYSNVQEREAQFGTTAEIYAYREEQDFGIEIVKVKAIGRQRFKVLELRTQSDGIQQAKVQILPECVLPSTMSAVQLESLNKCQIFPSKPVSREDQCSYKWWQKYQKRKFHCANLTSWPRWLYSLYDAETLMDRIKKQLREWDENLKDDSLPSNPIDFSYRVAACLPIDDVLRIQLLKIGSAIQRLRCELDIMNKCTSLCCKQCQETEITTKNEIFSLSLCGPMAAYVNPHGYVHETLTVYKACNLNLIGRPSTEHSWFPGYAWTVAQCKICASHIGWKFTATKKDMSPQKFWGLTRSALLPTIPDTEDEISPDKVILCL
T1 sequence (Q16531 whole entry partner): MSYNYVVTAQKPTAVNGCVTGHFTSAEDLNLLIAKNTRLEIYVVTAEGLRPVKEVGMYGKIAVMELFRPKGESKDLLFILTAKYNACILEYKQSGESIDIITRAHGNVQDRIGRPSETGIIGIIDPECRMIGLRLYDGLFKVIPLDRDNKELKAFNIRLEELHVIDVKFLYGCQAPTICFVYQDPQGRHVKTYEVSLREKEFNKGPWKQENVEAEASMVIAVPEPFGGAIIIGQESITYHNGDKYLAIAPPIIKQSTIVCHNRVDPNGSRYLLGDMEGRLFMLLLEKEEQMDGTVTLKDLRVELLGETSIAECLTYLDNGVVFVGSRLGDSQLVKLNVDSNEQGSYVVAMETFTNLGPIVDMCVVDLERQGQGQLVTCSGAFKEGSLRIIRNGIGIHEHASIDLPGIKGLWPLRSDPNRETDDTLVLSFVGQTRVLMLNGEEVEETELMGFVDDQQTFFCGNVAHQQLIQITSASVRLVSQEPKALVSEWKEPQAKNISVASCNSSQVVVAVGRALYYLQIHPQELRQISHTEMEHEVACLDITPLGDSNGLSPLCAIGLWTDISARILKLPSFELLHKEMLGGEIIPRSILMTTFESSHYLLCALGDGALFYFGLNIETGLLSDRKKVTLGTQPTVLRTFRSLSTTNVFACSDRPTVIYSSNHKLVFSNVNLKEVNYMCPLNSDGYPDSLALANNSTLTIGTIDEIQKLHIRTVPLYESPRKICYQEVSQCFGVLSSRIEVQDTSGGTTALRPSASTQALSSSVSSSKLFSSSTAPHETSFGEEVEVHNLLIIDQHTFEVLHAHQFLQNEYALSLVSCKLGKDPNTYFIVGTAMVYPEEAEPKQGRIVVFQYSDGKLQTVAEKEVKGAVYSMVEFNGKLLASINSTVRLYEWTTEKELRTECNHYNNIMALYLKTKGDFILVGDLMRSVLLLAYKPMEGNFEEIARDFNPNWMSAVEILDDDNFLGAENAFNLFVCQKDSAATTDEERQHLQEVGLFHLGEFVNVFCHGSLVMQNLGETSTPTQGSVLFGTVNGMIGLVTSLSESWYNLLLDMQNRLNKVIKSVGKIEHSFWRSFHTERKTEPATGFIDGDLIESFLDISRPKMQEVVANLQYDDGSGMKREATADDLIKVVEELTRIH
Experimental: HL-60 cells (4×10^^6 cells/well) were seeded in 6-well culture plate (Costar, 3516) and treated with a variety of concentrations of test compound. After 2h incubation, cells were collected and lysed. The protein concentration was determined by BCA protein assay kit from Thermo (23227). The GSPT1 protein level was determined by western blots, using GSPT1 polyclonal antibody. Proteins were loaded into each well of the pre-casting gels and subjected to electrophoretic separation by SDS-PAGE. The protein resolved by SDS-PAGE were transferred to PVDF, blocked by 5% skim milk and probed with anti-GSPT1 antibody (Proteintech, 10763-1-AP) or anti-β-actin antibody (CST, 3700S), using following standard western blotting procedure. Blots intensities were quantified using ImageJ software and the intensity of GSPT1 bands were normalized to beta-Actin bands, respectively. The GSPT1 degradation results were then calculated. Reported compound C84971 (see WO2021126974A1 and WO2021126973A1) was used as a reference.

**Q.** With `CCc1c(N)ccc(-c2cccc(N3CCCN(CC4CCN(c5ccc6c(c5)C(=O)N(C5CCC(=O)NC5=O)C6=O)CC4)C3=O)c2)c1Cl` (stereo not drawn) [Compound 29, 5-(4-((3-(4′-amino-2′-chloro-3′-ethyl-[1,1′-biphenyl]-3-yl)-2-oxotetrahydropyrimidin-1(2H)-yl)methyl)piperidin-1-yl)-2-(2,6-dioxopiperidin-3-yl)isoindoline-1,3-dione] as the compound, how does the IC50 (HL-60 cells) read?
**A.** The IC50 was 222 nM.

**Q.** What about the inhibition at 0.1 µM (GSPT1 protein) of the same compound?
**A.** The inhibition at 0.1 µM was 45%.

**Q.** And the inhibition at 1 µM (GSPT1 protein)?
**A.** The inhibition at 1 µM was 47%.

**Q.** `O=C1CCC(c2ccc(N3CCC(CCN4CCCN(c5ccccc5)C4=O)CC3)cc2)C(=O)N1` (stereo not drawn) [Compound 20, 3-(4-(4-(2-(2-oxo-3-phenyltetrahydropyrimidin-1(2H)-yl)ethyl)piperidin-1-yl)phenyl)piperidine-2,6-dione] was tested. Which inhibition at 0.1 µM (GSPT1 protein) did it give?
**A.** Its inhibition at 0.1 µM is 0%.

**Q.** And the inhibition at 1 µM (GSPT1 protein)?
**A.** The inhibition at 1 µM was 0%.

**Q.** Which results are given for `O=C1CCC(N2C(=O)c3ccc(N4CCC(CN5CCCN(C6CCCCC6)C5=O)CC4)cc3C2=O)C(=O)N1` (stereo not drawn) [Compound 5, 5-(4-((3-cyclohexyl-2-oxotetrahydropyrimidin-1(2H)-yl)methyl)piperidin-1-yl)-2-(2,6-dioxopiperidin-3-yl) isoindoline-1,3-dione]?
**A.** inhibition at 0.1 µM (GSPT1 protein): 17%; inhibition at 1 µM (GSPT1 protein): 7%

**Q.** Which results are given for `O=C1CCC(N2C(=O)c3ccc(N4CC(CCN5CCCN(c6cccc(-c7cnc8[nH]ncc8c7)c6)C5=O)C4)cc3C2=O)C(=O)N1` (stereo not drawn) [Compound 25, 2-(2,6-dioxopiperidin-3-yl)-5-(3-{2-[2-oxo-3-(3-{1H-pyrazolo[3,4-b]pyridin-5-yl}phenyl)-1,3-diazinan-1-yl]ethyl}azetidin-1-yl)isoindole-1,3-dione]?
**A.** IC50 (HL-60 cells): 137 nM; inhibition at 0.1 µM (GSPT1 protein): 55%; inhibition at 1 µM (GSPT1 protein): 57%

**Q.** How did the IC50 (HL-60 cells) turn out when `O=C1CCC(N2C(=O)c3ccc(N4CCC(CN5CCCN(c6ccccc6)C5=O)CC4)cc3C2=O)C(=O)N1` (stereo not drawn) [Compound 1, 2-(2,6-dioxopiperidin-3-yl)-5-{4-[(2-oxo-3-phenyl-1,3-diazinan-1-yl)methyl]piperidin-1-yl}isoindole-1,3-dione] was run?
**A.** Its IC50 is 1460 nM.

**Q.** What about the inhibition at 0.1 µM (GSPT1 protein) of the same compound?
**A.** The inhibition at 0.1 µM was 45%.

**Q.** What about the inhibition at 1 µM (GSPT1 protein) of the same compound?
**A.** The inhibition at 1 µM was 51%.

**Q.** Which IC50 (HL-60 cells) does the source give for `O=C1CCC(N2C(=O)c3ccc(N4CCC(CN5CCCCN(c6ccccc6)C5=O)CC4)cc3C2=O)C(=O)N1` (stereo not drawn) [Compound 6, 2-(2,6-dioxopiperidin-3-yl)-5-(4-((2-oxo-3-phenyl-1,3-diazepan-1-yl)methyl)piperidin-1-yl)isoindoline-1,3-dione] here?
**A.** The IC50 was 400 nM.

**Q.** What about the inhibition at 0.1 µM (GSPT1 protein) of the same compound?
**A.** Its inhibition at 0.1 µM is 46%.

**Q.** And the inhibition at 1 µM (GSPT1 protein)?
**A.** The inhibition at 1 µM was 52%.

**Q.** `CN(C)C(=O)c1ccc(-c2cccc(N3CCCN(CC4CCN(c5ccc6c(c5)C(=O)N(C5CCC(=O)NC5=O)C6=O)CC4)C3=O)c2)c(Cl)c1` (stereo not drawn) [Compound 32, 3-chloro-4-{3-[3-({1-[2-(2,6-dioxopiperidin-3-yl)-1,3-dioxoisoindol-5-yl]piperidin-4-yl}methyl)-2-oxo-1,3-diazinan-1-yl]phenyl}-N,N-dimethylbenzamide] was tested. Which inhibition at 0.1 µM (GSPT1 protein) did it give?
**A.** The inhibition at 0.1 µM was less than 10%.

**Q.** And the inhibition at 1 µM (GSPT1 protein)?
**A.** The inhibition at 1 µM was less than 10%.

**Q.** Which results are given for `O=C1CCC(N2C(=O)c3ccc(N4CCC(CN5CCCN(Cc6ccc(F)cc6)C5=O)CC4)cc3C2=O)C(=O)N1` (stereo not drawn) [Compound 16, 2-(2,6-dioxopiperidin-3-yl)-5-(4-((3-(4-fluorobenzyl)-2-oxotetrahydropyrimidin-1(2H)-yl)methyl)piperidin-1-yl)isoindoline-1,3-dione]?
**A.** inhibition at 0.1 µM (GSPT1 protein): 26%; inhibition at 1 µM (GSPT1 protein): 32%

**Q.** Which inhibition at 0.1 µM (GSPT1 protein) does the source give for `Cc1nc2ncc(-c3cccc(N4CCCN(CCC5CN(c6ccc7c(c6)C(=O)N(C6CCC(=O)NC6=O)C7=O)C5)C4=O)c3)cc2o1` (stereo not drawn) [Compound 24, 2-(2,6-dioxopiperidin-3-yl)-5-(3-(2-(3-(3-(2-methyloxazolo[4,5-b]pyridin-6-yl)phenyl)-2-oxotetrahydropyrimidin-1(2H)-yl)ethyl)azetidin-1-yl)isoindoline-1,3-dione] here?
**A.** The inhibition at 0.1 µM was 26%.

**Q.** What about the inhibition at 1 µM (GSPT1 protein) of the same compound?
**A.** The inhibition at 1 µM was 29%.

**Q.** What does the source list for `O=C1CCC(c2ccc(N3CCC(CN4CCCN(c5ccccc5)C4=O)CC3)cc2)C(=O)N1` (stereo not drawn) [Compound 13, 3-(4-{4-[(2-oxo-3-phenyl-1,3-diazinan-1-yl)methyl]piperidin-1-yl}phenyl) piperidine-2,6-dione]?
**A.** inhibition at 0.1 µM (GSPT1 protein): 0%; inhibition at 1 µM (GSPT1 protein): 0%

**Q.** `CNC(=O)c1ccc(-c2cccc(N3CCCN(CC4CCN(c5ccc6c(c5)C(=O)N(C5CCC(=O)NC5=O)C6=O)CC4)C3=O)c2)c(Cl)c1` (stereo not drawn) [Compound 31, 3-chloro-4-{3-[3-({1-[2-(2,6-dioxopiperidin-3-yl)-1,3-dioxoisoindol-5-yl]piperidin-4-yl}methyl)-2-oxo-1,3-diazinan-1-yl]phenyl}-N-methylbenzamide] was tested. Which inhibition at 0.1 µM (GSPT1 protein) did it give?
**A.** Its inhibition at 0.1 µM is 45%.

**Q.** And the inhibition at 1 µM (GSPT1 protein)?
**A.** Its inhibition at 1 µM is 55%.

**Q.** What does the source list for `CCNc1ccc(-c2cccc(N3CCCN(CC4CCN(c5ccc6c(c5)C(=O)N(C5CCC(=O)NC5=O)C6=O)CC4)C3=O)c2)c(Cl)c1` (stereo not drawn) [Compound 30, 5-{4-[(3-{3-[2-chloro-4-(ethylamino)phenyl]phenyl}-2-oxo-1,3-diazinan-1-yl)methyl]piperidin-1-yl}-2-(2,6-dioxopiperidin-3-yl)isoindole-1,3-dione]?
**A.** inhibition at 0.1 µM (GSPT1 protein): 37%; inhibition at 1 µM (GSPT1 protein): 45%

**Q.** What does the source list for `CCn1ncc2ccc(-c3cccc(N4CCCN(CC5CCN(c6ccc7c(c6)C(=O)N(C6CCC(=O)NC6=O)C7=O)CC5)C4=O)c3)c(Cl)c21` (stereo not drawn) [Compound 34, 5-(4-((3-(3-(7-chloro-1-ethyl-1H-indazol-6-yl)phenyl)-2-oxotetrahydropyrimidin-1(2H)-yl)methyl)piperidin-1-yl)-2-(2,6-dioxopiperidin-3-yl)isoindoline-1,3-dione]?
**A.** inhibition at 0.1 µM (GSPT1 protein): 58%; inhibition at 1 µM (GSPT1 protein): 53%

**Q.** `CC(C)(C)N1CCCN(CC2CCN(c3ccc4c(c3)C(=O)N(C3CCC(=O)NC3=O)C4=O)CC2)C1=O` (stereo not drawn) [Compound 7, 5-(4-((3-(tert-butyl)-2-oxotetrahydropyrimidin-1(2H)-yl)methyl)piperidin-1-yl)-2-(2,6-dioxopiperidin-3-yl)isoindoline-1,3-dione] was tested. Which inhibition at 0.1 µM (GSPT1 protein) did it give?
**A.** Its inhibition at 0.1 µM is 0%.

**Q.** And the inhibition at 1 µM (GSPT1 protein)?
**A.** The inhibition at 1 µM was 10%.

**Q.** Which results are given for `O=C1CCC(N2C(=O)c3ccc(N4CCC(CN5CCN(c6ccccc6)C5=O)CC4)cc3C2=O)C(=O)N1` (stereo not drawn) [Compound 2, 2-(2,6-dioxopiperidin-3-yl)-5-(4-((2-oxo-3-phenylimidazolidin-1-yl)methyl)piperidin-1-yl)isoindoline-1,3-dione]?
**A.** inhibition at 0.1 µM (GSPT1 protein): 0%; inhibition at 1 µM (GSPT1 protein): 0%

**Q.** How did the inhibition at 0.1 µM (GSPT1 protein) turn out when `O=C1CCC(N2C(=O)c3ccc(N4CCC(CN5CCN(Cc6ccc(F)cc6)C5=O)CC4)cc3C2=O)C(=O)N1` (stereo not drawn) [Compound 17, 2-(2,6-dioxopiperidin-3-yl)-5-(4-((3-(4-fluorobenzyl)-2-oxoimidazolidin-1-yl)methyl)piperidin-1-yl)isoindoline-1,3-dione] was run?
**A.** Its inhibition at 0.1 µM is 36%.

**Q.** And the inhibition at 1 µM (GSPT1 protein)?
**A.** Its inhibition at 1 µM is 22%.

**Q.** What does the source list for `CS(=O)(=O)c1ccc(-c2cccc(N3CCCN(CC4CCN(c5ccc6c(c5)C(=O)N(C5CCC(=O)NC5=O)C6=O)CC4)C3=O)c2)c(Cl)c1` (stereo not drawn) [Compound 33, 5-[4-({3-[3-(2-chloro-4-methanesulfonylphenyl)phenyl]-2-oxo-1,3-diazinan-1-yl}methyl)piperidin-1-yl]-2-(2,6-dioxopiperidin-3-yl)isoindole-1,3-dione]?
**A.** inhibition at 0.1 µM (GSPT1 protein): < 10%; inhibition at 1 µM (GSPT1 protein): 15%

**Q.** With `O=C1CCC(N2C(=O)c3ccc(N4CC(CCN5CCCN(c6cccc(-c7ccn8ccnc8c7)c6)C5=O)C4)cc3C2=O)C(=O)N1` (stereo not drawn) [Compound 21, 2-(2,6-dioxopiperidin-3-yl)-5-(3-(2-(3-(3-(imidazo[1,2-a]pyridin-7-yl)phenyl)-2-oxotetrahydropyrimidin-1(2H)-yl)ethyl)azetidin-1-yl)isoindoline-1,3-dione] as the compound, how does the inhibition at 0.1 µM (GSPT1 protein) read?
**A.** The inhibition at 0.1 µM was 35%.

**Q.** And the inhibition at 1 µM (GSPT1 protein)?
**A.** Its inhibition at 1 µM is 40%.

**Q.** Which results are given for `O=C1CCC(N2C(=O)c3ccc(N4CCC(CN5CCCN(c6cccc(Cl)c6)C5=O)CC4)cc3C2=O)C(=O)N1` (stereo not drawn) [Compound 14, 5-(4-((3-(3-chlorophenyl)-2-oxotetrahydropyrimidin-1(2H)-yl)methyl)piperidin-1-yl)-2-(2,6-dioxopiperidin-3-yl)isoindoline-1,3-dione]?
**A.** inhibition at 0.1 µM (GSPT1 protein): 0%; inhibition at 1 µM (GSPT1 protein): 0%

**Q.** What does the source list for `O=C1CCC(N2C(=O)c3ccc(N4CCC(CN5CCCN(c6ccccn6)C5=O)CC4)cc3C2=O)C(=O)N1` (stereo not drawn) [Compound 4, 2-(2,6-dioxopiperidin-3-yl)-5-(4-{[2-oxo-3-(pyridin-2-yl)-1,3-diazinan-1-yl]methyl}piperidin-1-yl)isoindole-1,3-dione]?
**A.** inhibition at 0.1 µM (GSPT1 protein): 0%; inhibition at 1 µM (GSPT1 protein): 0%

**Q.** Which inhibition at 0.1 µM (GSPT1 protein) does the source give for `Cc1csc(N2CCCN(CC3CCN(c4ccc5c(c4)C(=O)N(C4CCC(=O)NC4=O)C5=O)CC3)C2=O)n1` (stereo not drawn) [Compound 18, 2-(2,6-dioxopiperidin-3-yl)-5-(4-{[3-(4-methyl-1,3-thiazol-2-yl)-2-oxo-1,3-diazinan-1-yl]methyl}piperidin-1-yl)isoindole-1,3-dione] here?
**A.** Its inhibition at 0.1 µM is 32%.

**Q.** And the inhibition at 1 µM (GSPT1 protein)?
**A.** The inhibition at 1 µM was 36%.

**Q.** Which inhibition at 0.1 µM (GSPT1 protein) does the source give for `CCc1c[nH]c2ccc(-c3cc(N4CCCN(CC5CCN(c6ccc7c(c6)C(=O)N(C6CCC(=O)NC6=O)C7=O)CC5)C4=O)ccn3)c(Cl)c12` (stereo not drawn) [Compound 35, 5-(4-((3-(2-(4-chloro-3-ethyl-1H-indol-5-yl)pyridin-4-yl)-2-oxotetrahydropyrimidin-1(2H)-yl)methyl)piperidin-1-yl)-2-(2,6-dioxopiperidin-3-yl)isoindoline-1,3-dione] here?
**A.** Its inhibition at 0.1 µM is 0%.

**Q.** What about the inhibition at 1 µM (GSPT1 protein) of the same compound?
**A.** Its inhibition at 1 µM is 0%.
